# Laboratory results published in patent publication US12479816B2, “20-HETE formation inhibitors” (UNIVERSITY OF PITTSBURGH—OF THE COMMONWEALTH SYSTEM OF …, priority 2019, dated 2025).
# Where two headings read alike, the source gives them in different places.
# Key:
# [1] = system: 20-HETE formation (CYP4) in HLM; test: Inhibition of 20-HETE formation at 250 or 500 nM in HLM microsomal incubations; format: biochemical, human; details: HLM 300 μg/ml, AA 100 μM, 20 min; for HLM % inh. @ 250 nM: 250 nM compound; for HLM % inh. @ 500 nM: 500 nM compound
# Summary of the method: (§1)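 Liver or kidney microsomes (300 μg/ml) or rCYP4F2 (25 pmol/mL) were incubated with 100 μM arachidonic acid, 1 mM NADPH and compound at 250 or 500 nM in 0.12 M potassium phosphate/5 mM MgCl2 for 20 min at 37 °C. 20-HETE was measured by UPLC-MS/MS against 20-HETE-d6 and expressed as % of vehicle (n=3).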
# [2] = system: 20-HETE formation (CYP4) in HLM; test: IC50 determination, 20-HETE formation in HLM; format: biochemical, human; details: HLM 300 μg/ml, AA 100 μM, 12 concentrations
# Summary of the method: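 Human or rat liver microsomes (300 μg/ml) with arachidonic acid 100 μM, NADPH 1 mM, compound at 12 concentrations (0.1 nM-50 μM) in phosphate/MgCl2 buffer, 20 min at 37 °C. 20-HETE quantified by UPLC-MS/MS against d6 internal standard, normalised to vehicle; IC50 by nonlinear regression.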
# [3] = HLM stability determination; format: in vitro ADME, human; details: HLM 500 μg/ml, 1 μM compound, NADPH, relative to 0 min
# Experimental: HLM stability determinations shown in Table 3 were obtained as follows. Microsomal incubates contained HLM (500 μg/ml), test compounds (1 μM) and NADPH (1.3 mM) in a 1 ml total volume of microsomal incubation buffer (0.12 M potassium phosphate buffer containing 5 mM magnesium chloride). Reaction was started by adding NADPH to the incubates and was carried out at 37° C. in a shaking water bath for 60 min. At 0, 15, 30, 45, 60 min, a 50 μl aliquot of incubates was taken out and reaction was stopped by adding aliquot into 200 μl ice-cold acetonitrile. After centrifugation at 14000×g for 5 min, 200 μl supernatant was taken out for UPLC-MS/MS analysis as described above. Values at 0 min were used as corresponding control for test compounds. Varapamil, metoprolol, and warfarin, categorized as fast, moderate and slow metabolism, were used as positive control. Incubates without NADPH group served as negative control.
# [4] = system: 20-HETE formation (CYP4) in RKM; test: Inhibition of 20-HETE formation at 250 or 500 nM in RKM microsomal incubations; format: biochemical, rat; details: RKM 300 μg/ml; for RKM % inh. @ 250 nM: 250 nM compound; for RKM % inh. @ 500 nM: 500 nM compound
# Summary of the method: as §1
# [5] = system: 20-HETE formation (CYP4) in RLM; test: Inhibition of 20-HETE formation at 250 or 500 nM in RLM microsomal incubations; format: biochemical, rat; details: RLM 300 μg/ml; for RLM % inh. @ 250 nM: 250 nM compound; for RLM % inh. @ 500 nM: 500 nM compound
# Summary of the method: as §1
# [6] = Turbidometric solubility determination; format: physicochemical; details: PBS with 1% DMSO, aqueous buffer, kinetic from dmso stock, room temperature
# Summary of the method: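 Kinetic turbidimetric solubility: DMSO stocks diluted 1:100 into PBS in triplicate to give 0–600 μM in 1% DMSO. Shaken 2 h at room temperature, then OD620 read. Solubility limit taken as the concentration giving a statistically significant absorbance rise above background.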
SMILES,HLM % inh. @ 250 nM [1] [%],HLM % inh. @ 500 nM [1] [%],IC50 [2] [µM],Stability HLM % @ 30 min [3] [%],RKM % inh. @ 250 nM [4] [%],RLM % inh. @ 250 nM [5] [%],"solubility at 2 h ([6]; OD620, read-out: Max Solub) [µM]",solubility at 2 h ([6]; read-out: Solubility_ug/mL) [µg/mL],RKM % inh. @ 500 nM [4] [%],RLM % inh. @ 500 nM [5] [%]
"c1ccc(C2CCN(c3cn[nH]c3)CC2)cc1 [Compound 1, 4-Phenyl-1-(1H-pyrazol-4-yl)piperidine]",64.29,78.80,0.19,100,18.00,27.40,121,28,–,–
"c1ccc(CC2CCN(c3cn[nH]c3)CC2)cc1 [Compound 3, 4-Benzyl-1-(1H-pyrazol-4-yl)piperidine]",–,77.30,0.05,85,–,–,505,122,0.00,2.40
"COc1ccc(C2CCN(c3ccn[nH]3)CC2)cc1 [Compound 19, 4-(4-Methoxyphenyl)-1-(1H-pyrazol-5-yl)piperidine]",–,72.30,0.14,89,–,–,106,27.3,0.00,31.80
"COc1ccc(C2CCN(c3cn[nH]c3)CC2)cc1 [Compound 20, 4-(4-Methoxyphenyl)-1-(1H-pyrazol-4-yl)piperidine]",–,73.10,0.07,92,–,–,35,9,4.90,25.90
"CC(=O)N(C)c1ccc(C2CCN(c3cn[nH]c3)CC2)cc1 [Compound 28, N-(4-(1-(1H-Pyrazol-4-yl)piperidin-4-yl)phenyl)-N-methylacetamide]",–,75.00,0.1,–,–,–,> 600,179,43.00,52.00

# Other lines, results leading:
HLM % inh. @ 250 nM [1] [%],HLM % inh. @ 500 nM [1] [%],IC50 [2] [µM],Stability HLM % @ 30 min [3] [%],RKM % inh. @ 250 nM [4] [%],RLM % inh. @ 250 nM [5] [%],"solubility at 2 h ([6]; OD620, read-out: Max Solub) [µM]",solubility at 2 h ([6]; read-out: Solubility_ug/mL) [µg/mL],RKM % inh. @ 500 nM [4] [%],RLM % inh. @ 500 nM [5] [%],SMILES
–,80.00,0.11,–,–,–,> 600,145,36.00,44.00,"Cc1cccc(C2CCN(c3cn[nH]c3)CC2)c1 [Compound 34, 1-(1H-Pyrazol-4-yl)-4-(m-tolyl)piperidine]"
31.60,47.40,0.44,91,0.00,12.00,> 600,137,–,–,"c1ccc(C2CCN(c3ccn[nH]3)CC2)cc1 [Compound 54, 4-Phenyl-1-(1H-pyrazol-5-yl)piperidine]"
–,91.6,0.0542,91,–,–,> 600,–,–,49.60,"O=C1CCCN1Cc1ccc(C2CCN(c3cn[nH]c3)CC2)cc1 [Compound 83, 1-(4-(1-(1H-Pyrazol-4-yl)piperidin-4-yl)benzyl)pyrrolidin-2-one]"
–,93.03,0.017,85,–,–,117,–,–,64.30,"Clc1ccc(CC2CCN(c3cn[nH]c3)CC2)cc1 [Compound 93, 4-(4-Chlorobenzyl)-1-(1H-pyrazol-4-yl)piperidine]"
–,76.1,0.054,95,–,–,74,–,–,42.90,"O=C1CCCN1c1ccc(C2CCN(c3cn[nH]c3)CC2)cc1 [Compound 100, 1-(4-(1-(1H-Pyrazol-4-yl)piperidin-4-yl)phenyl)pyrrolidin-2-one]"
